Read-outs that look alike come from different tables or passages of the source.

For data set [1], the target named is T1, AhR (Mus musculus, UniProt P30561).
T1 sequence (P30561 1-848): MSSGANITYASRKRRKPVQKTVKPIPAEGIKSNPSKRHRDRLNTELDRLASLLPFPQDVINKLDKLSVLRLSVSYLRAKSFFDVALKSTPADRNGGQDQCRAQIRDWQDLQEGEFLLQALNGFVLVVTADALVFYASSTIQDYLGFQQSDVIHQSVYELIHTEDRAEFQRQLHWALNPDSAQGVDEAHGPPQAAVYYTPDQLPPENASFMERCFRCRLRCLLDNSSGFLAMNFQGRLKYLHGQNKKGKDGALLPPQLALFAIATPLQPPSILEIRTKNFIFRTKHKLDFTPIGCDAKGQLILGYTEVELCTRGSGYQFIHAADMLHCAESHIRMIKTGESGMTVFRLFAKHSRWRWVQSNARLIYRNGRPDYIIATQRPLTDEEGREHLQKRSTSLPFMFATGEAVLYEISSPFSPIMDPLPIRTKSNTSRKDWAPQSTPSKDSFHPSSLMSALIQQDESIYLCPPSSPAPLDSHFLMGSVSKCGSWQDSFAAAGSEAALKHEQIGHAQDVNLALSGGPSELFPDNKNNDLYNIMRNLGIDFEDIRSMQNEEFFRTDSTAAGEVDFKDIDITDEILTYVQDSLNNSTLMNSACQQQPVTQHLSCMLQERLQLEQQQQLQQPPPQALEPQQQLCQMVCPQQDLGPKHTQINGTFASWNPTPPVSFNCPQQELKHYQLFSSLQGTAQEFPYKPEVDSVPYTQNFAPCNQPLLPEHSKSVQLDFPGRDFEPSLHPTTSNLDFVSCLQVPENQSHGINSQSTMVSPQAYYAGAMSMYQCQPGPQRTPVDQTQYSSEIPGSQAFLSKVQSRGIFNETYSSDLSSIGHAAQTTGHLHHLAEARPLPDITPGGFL
The conditions noted are these: read-out: EC50 AhR (hepatoma cell line); Table 4; EGFP at 24 hours.

Data set [2] in a line: Solubility (qualitative remark). The conditions noted are these: relative to parent indirubins / 3′-oximes.
The target in data set [3] is AhR (Homo sapiens, UniProt P35869). Briefly: Yeast AhR reporter assay (β-galactosidase). The conditions noted are these: read-out: EC50 AhR (yeast); Table 4; * = inactive at the indicated highest concentration tested.
AhR (Homo sapiens, UniProt P35869), sequence (P35869 11-848): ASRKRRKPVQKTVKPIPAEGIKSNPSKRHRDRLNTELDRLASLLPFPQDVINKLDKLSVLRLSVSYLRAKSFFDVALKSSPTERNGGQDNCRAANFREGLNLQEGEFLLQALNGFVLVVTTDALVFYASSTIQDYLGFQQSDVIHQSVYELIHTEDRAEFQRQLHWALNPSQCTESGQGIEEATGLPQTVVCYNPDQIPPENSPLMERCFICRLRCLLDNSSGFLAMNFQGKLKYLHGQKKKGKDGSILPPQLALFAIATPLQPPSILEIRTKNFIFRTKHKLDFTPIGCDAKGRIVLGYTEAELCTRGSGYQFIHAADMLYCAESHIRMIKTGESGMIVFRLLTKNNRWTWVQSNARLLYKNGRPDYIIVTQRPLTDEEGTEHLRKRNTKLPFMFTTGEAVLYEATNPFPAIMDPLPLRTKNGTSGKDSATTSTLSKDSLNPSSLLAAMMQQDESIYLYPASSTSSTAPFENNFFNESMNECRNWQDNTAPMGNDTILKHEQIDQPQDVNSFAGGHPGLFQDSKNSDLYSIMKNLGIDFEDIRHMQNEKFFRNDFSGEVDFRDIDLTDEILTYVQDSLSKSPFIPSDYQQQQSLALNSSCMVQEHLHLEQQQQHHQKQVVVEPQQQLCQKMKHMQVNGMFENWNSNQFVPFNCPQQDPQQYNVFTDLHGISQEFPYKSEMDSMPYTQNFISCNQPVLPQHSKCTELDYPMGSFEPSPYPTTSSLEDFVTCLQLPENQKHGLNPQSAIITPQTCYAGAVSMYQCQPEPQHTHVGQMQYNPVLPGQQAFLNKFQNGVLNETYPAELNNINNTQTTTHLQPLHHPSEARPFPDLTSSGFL
AhR (Homo sapiens, UniProt P35869), sequence (P27540 whole entry partner): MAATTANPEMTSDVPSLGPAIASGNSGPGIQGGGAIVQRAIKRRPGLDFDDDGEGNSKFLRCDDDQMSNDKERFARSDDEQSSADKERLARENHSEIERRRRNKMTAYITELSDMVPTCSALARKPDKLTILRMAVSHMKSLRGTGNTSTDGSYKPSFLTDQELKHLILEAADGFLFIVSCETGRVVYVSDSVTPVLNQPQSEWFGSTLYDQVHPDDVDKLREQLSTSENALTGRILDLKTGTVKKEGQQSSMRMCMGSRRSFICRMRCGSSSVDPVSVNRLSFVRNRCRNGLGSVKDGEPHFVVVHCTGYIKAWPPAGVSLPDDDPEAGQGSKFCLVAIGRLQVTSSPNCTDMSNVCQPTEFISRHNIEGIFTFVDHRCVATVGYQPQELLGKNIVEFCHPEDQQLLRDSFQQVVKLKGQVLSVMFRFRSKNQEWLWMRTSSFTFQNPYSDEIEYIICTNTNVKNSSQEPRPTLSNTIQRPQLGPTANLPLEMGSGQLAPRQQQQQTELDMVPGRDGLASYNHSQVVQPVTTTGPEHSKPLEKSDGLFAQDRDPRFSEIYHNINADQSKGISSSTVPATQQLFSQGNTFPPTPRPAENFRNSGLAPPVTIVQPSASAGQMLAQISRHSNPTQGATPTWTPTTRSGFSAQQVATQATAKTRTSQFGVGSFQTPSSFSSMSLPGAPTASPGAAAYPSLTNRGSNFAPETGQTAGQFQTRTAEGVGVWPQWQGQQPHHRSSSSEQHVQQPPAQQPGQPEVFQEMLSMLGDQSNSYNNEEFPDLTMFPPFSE
In data set [4] the target is CDK5/p25 (Homo sapiens, UniProt Q00535). Briefly: CDK5/p25 kinase assay (histone H1, 15 μM ATP). Type of data set: biochemical, mammalian. The conditions noted are these: read-out: IC50 CDK5/p25.
CDK5/p25, sequence (Q00535 whole entry, species assumed): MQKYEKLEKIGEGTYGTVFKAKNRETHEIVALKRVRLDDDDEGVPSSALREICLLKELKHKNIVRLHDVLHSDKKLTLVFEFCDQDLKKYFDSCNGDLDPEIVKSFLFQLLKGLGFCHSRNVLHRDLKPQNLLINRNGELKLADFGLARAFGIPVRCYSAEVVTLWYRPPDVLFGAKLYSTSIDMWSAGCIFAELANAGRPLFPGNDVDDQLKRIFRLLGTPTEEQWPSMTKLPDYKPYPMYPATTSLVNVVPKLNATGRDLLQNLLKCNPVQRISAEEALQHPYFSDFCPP
CDK5/p25, sequence (Q15078 99-307 partner limits assumed, species assumed): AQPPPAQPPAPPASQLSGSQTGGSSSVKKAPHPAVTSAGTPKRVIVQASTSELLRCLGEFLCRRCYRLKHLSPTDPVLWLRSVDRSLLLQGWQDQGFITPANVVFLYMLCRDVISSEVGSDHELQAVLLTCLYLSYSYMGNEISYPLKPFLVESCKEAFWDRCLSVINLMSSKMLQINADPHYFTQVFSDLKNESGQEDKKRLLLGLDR
For data set [5], the target named is CDK5/p35 (Homo sapiens, UniProt Q00535). Briefly: CDK5/p35 kinase assay. The conditions noted are these: read-out: IC50 CDK5/p35; Table 2, 15 μM ATP.
CDK5/p35, sequence (Q00535 whole entry, species assumed): as the sequence (Q00535 whole entry, species assumed) above
CDK5/p35, sequence (Q15078 whole entry partner, species assumed): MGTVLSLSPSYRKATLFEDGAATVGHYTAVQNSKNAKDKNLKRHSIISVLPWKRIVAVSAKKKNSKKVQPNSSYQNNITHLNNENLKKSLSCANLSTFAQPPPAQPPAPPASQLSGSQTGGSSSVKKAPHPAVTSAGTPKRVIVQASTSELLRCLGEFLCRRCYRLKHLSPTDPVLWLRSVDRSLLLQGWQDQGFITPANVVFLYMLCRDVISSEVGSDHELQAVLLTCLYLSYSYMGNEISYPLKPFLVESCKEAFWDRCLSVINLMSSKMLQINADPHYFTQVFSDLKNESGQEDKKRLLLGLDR
Data set [6] concerns cAMP-dependent PK. Briefly: cAMP-dependent PK assay. The conditions noted are these: read-out: IC50 cAMP-dependent PK; Table 2, 15 μM ATP.
The target of data set [7] is protein kinase C γ (Homo sapiens, UniProt P05129). Briefly: protein kinase C γ assay. The conditions noted are these: read-out: IC50 protein kinase C γ; Table 2, 15 μM ATP.
For data set [8], the target named is protein kinase C δ (Homo sapiens, UniProt Q05655). Briefly: protein kinase C δ assay. The conditions noted are these: read-out: IC50 protein kinase C δ; Table 2, 15 μM ATP.
protein kinase C δ, sequence (Q05655 whole entry): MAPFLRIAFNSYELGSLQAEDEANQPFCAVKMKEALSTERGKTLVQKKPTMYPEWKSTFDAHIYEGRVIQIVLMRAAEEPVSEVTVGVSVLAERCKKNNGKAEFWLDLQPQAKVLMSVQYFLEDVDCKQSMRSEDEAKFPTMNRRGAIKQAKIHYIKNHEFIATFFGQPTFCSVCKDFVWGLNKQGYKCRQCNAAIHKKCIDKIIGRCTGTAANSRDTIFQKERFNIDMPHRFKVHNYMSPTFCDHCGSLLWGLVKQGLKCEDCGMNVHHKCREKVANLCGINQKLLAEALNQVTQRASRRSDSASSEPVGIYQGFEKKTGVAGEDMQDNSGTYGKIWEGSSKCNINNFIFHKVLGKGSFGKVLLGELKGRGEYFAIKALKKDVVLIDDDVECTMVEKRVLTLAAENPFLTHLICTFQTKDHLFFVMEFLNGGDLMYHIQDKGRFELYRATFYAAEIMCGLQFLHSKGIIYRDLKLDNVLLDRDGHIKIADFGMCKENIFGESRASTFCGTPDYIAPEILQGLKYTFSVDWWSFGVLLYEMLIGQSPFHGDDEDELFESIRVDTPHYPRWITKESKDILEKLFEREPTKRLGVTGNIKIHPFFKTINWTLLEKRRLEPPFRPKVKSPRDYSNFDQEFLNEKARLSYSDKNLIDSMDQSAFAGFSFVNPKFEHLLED
Data set [9] concerns the target T2, protein kinase C ε (Homo sapiens, UniProt Q02156).
T2 sequence (Q02156 1-737): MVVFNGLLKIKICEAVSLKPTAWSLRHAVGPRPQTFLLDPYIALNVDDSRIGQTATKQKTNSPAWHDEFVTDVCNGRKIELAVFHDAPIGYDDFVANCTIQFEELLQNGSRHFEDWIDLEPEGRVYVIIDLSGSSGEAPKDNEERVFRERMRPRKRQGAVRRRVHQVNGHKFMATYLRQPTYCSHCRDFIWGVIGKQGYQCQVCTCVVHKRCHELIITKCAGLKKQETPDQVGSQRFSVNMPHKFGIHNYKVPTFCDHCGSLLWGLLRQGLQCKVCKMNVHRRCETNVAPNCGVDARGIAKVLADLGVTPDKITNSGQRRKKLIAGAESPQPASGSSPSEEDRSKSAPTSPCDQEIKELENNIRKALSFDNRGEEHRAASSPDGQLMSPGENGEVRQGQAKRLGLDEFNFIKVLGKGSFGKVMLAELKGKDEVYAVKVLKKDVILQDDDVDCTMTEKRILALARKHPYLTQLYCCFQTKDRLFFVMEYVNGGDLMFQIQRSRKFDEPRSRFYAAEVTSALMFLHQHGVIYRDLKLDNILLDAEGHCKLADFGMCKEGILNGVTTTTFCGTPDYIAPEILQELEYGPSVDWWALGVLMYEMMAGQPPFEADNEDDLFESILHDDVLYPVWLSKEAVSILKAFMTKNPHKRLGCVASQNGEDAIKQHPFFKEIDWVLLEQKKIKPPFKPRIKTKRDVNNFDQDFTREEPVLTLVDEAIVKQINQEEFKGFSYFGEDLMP
The experiment in a line: protein kinase C ε assay. The conditions noted are these: read-out: IC50 protein kinase C ε; Table 2, 15 μM ATP.

In data set [10] the target is T3, protein kinase C ζ (Homo sapiens, UniProt Q05513).
T3 sequence (Q05513 1-592): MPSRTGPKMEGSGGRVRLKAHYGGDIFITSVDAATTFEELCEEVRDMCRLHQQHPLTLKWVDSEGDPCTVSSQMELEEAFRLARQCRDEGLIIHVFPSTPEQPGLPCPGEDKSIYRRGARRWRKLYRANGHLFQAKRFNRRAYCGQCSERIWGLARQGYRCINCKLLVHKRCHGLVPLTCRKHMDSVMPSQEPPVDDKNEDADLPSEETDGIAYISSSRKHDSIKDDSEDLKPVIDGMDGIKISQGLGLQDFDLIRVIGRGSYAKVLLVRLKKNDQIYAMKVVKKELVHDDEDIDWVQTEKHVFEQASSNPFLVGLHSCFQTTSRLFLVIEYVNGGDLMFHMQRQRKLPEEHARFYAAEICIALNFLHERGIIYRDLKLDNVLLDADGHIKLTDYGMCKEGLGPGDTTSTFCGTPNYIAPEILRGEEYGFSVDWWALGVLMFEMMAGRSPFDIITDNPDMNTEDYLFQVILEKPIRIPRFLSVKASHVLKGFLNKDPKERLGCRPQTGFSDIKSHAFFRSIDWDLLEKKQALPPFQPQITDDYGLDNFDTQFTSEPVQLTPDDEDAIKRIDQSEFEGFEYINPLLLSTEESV
Briefly: protein kinase C ζ assay. The conditions noted are these: read-out: IC50 protein kinase C ζ; Table 2, 15 μM ATP.

On to `O=C1Nc2ccccc2/C1=C1/Nc2ccccc2/C1=N\O` [7h, indirubin-3′-oxime], for which the EC50 in [1] worked out at 720 nM; in data set [3], 25 nM. Moreover, in [2], the “solubility (in words)” value was “increased solubility”.

For the molecule `CC(=O)ON=C1C(=C2C(=O)Nc3cc(Br)ccc32)Nc2ccccc21` [8a, 6-Bromoindirubin-3′-acetoxime], the IC50 is 2400 nM in [4] (Table 1); 2400 nM in [4] (Table 5); 2400 nM in [5]; more than 10000 nM in data set [6]; more than 10000 nM in [7]; more than 10000 nM in [8]. Besides, the IC50 in [9] and in [10] was more than 10000 nM each time. Further, in data set [1], the EC50 amounted to 160 nM. Also, the “solubility (in words)” value in data set [2] is “less soluble”.

With `CON=C1C(=C2C(=O)Nc3cc(Br)ccc32)Nc2ccccc21` [9a, 6-Bromoindirubin-3′-methoxime], the IC50 in [4] (Table 1) was 2200 nM; in [4] (Table 5), 2200 nM; in [5], 2200 nM; in [6], more than 10000 nM; in data set [7] it was more than 10000 nM; in data set [8], more than 10000 nM. Moreover, the IC50 in data set [9] and in data set [10] was more than 10000 nM throughout. The EC50 is 30 nM in [1] and more than 100 nM in data set [3]. Moreover, the “solubility (in words)” value in data set [2] was “less soluble”.

For the origin of these results see patent US20070276025A1, “Indirubin-Type Compounds, Compositions, and Methods for Their Use” (priority 2003, published 2007).
